3 compounds from patent US20250127824A1, “BACTERIAL STRAIN USED IN THE PREVENTION AND/OR TREATMENT OF INFLAMMATORY PATHOLOGIES” (VERB BIOTICS, priority 2021, published 2025) can be followed below.

The test system of assay [1] is HT-29 colon adenocarcinoma line. The assay is described as follows: IL-8 secretion by TNF-α-stimulated HT-29 cells, supernatant with or without 5-ASA or Budesonide. The following applies: TNF-α 5 ng/ml, 6 h, 10% supernatant. Type of assay: cell-based. On the procedure: The HT-29 cells (ECACC) were inoculated into 24-well plates at 3×10^5 cells per well in McCoy's 5A (Gibco) medium supplemented with 10% fetal calf serum (FCS, Gibco) and incubated at 37° C./5% […] for 24 h. The cells were washed with PBS-1× (Gibco) and cultivated for an additional 24 h in McCoy's 5A medium at 2% FCS. The cells were then stimulated for 6 hours with 5 ng/ml of TNF-α in the presence of 10% of supernatant in stationary phase of DSM 33715 or of bacterial culture medium as control (ctrl), whether or not in the presence of anti-inflammatory agents. 5-ASA (10 mM) and budesonide (20 μM) are molecules used in the treatment of inflammatory diseases, such as ulcerative colitis and Crohn's disease. After 6 h, the cell culture supernatants were collected and stored at −80° C. until the […] was quantified by ELISA. The IL-8 assay was carried out by BioLegend specific ELISA, according to the manufacturer's instructions. The absorbance at 460 nm was read using the FluoStar Omega microplate reader of BMG Labtech. Statistics: Sidak's multiple comparisons test. * p<0.05, ** p<0.01, *** […], **** p<0.0001. […]

For the next assay, the system named is JAK/STAT pathway. In words: JAK/STAT luciferase reporter in IFN-γ-stimulated HT-29 cells, supernatant with or without Tofacitinib. Type of assay: cell-based. The following applies: 10% supernatant, Tofacitinib 1 μM, 6 h. On the procedure: HT-29 cells at a density of 3×10^5 cells/well, in 24-well plate, were transfected according to a reverse-transfection protocol, with 200 ng of pGL4 luc2P GAS-RE (IFN-γ-dependent JAK/STAT signaling pathway) and 10 ng of pRL-TK vector (Promega), using X-tremeGENE HP DNA transfection reagent with a 3:1 ratio (Roche). To summarize, the reactive/DNA transfection complexes were prepared in a final volume of 50 μl of McCoy's 5A without serum and without antibiotic, the appropriate amount of each plasmid was added and homogenized, and then the transfection agent was added (3:1). The transfection complexes were carefully mixed and incubated at room temperature for 15 minutes. After incubation, the transfection complexes were added to the freshly resuspended HT-29 cells at the appropriate density in McCoy's 5A medium supplemented with 10% FCS, and then the cell/transfection complex mixtures were gently homogenized and placed on plates. The plates were incubated for 24 h in a humid atmosphere at 5% C02 and the medium was then replaced with medium at 2% FCS for 12 h, after washing with PBS IX. […]
The activity of the luciferase Firefly was read. Then 50 μl reagent Stop&Glo was added and the measurement of the Renilla activity was read with the FLUOstar Omega plate reader (BMG Labtech). […]

Each structure is given as a SMILES string.

Regarding `CCCC1O[C@@H]2C[C@H]3[C@@H]4CCC5=CC(=O)C=C[C@]5(C)[C@H]4[C@@H](O)C[C@]3(C)[C@]2(C(=O)CO)O1` (stereo partly drawn) [Budesonide], the “secretion of IL-8 reduced relative to the control (Panel B)” value in assay [1] (budesonide 20 μM) was found to be 38%.
As to `Nc1ccc(O)c(C(=O)O)c1` [5-ASA], the “secretion of IL-8 reduced relative to the control (Panel A)” value in assay [1] (5-ASA 10 mM) turned out to be 38%.
As for `C[C@@H]1CCN(C(=O)CC#N)C[C@@H]1N(C)c1ncnc2[nH]ccc12` [Tofacitinib], the “decrease in the IFN-γ-induced activation of the JAK/STAT pathway” value with JAK/STAT pathway was 49%.
